Measurements: PMC3847553, “Kinetic properties of “dual” orexin receptor antagonists at OX1R and OX2R orexin receptors” (Frontiers in Neuroscience, 2013)
Where two headings read alike, the source gives them in different places.

Legend:
sleep wake cycle = system: sleep wake cycle; set-up: method as in Mang et al., 2012; conditions: ref Mang et al., 2012, cited from earlier work
OX1R = test: FLIPR calcium assay, OX1R, species not given; assay type: cell-based; conditions: species not stated
Protocol: (§1) Determination of orexin A-stimulated calcium accumulation was performed over 2 days using FLIPR® (Fluorescent imaging plate reader from Molecular Devices-FLIPR384). Cells expressing either human, rat or mouse OX1R or OX2R were seeded at 8,000 cells/well in black 384 well clear bottom plates and incubated overnight at 37°C. The following day, medium was discarded and cells loaded with 50 μ l of 1 mM Fluo-4 AM (Invitrogen F14202) in dimethyl sulfoxide in working buffer (Hanks' balanced salt solution, 10 mM HEPES) and incubated for 60 min at 37°C. The loading buffer was removed and cells were washed with 100 μ l working buffer containing […], 0.1% BSA, and 2.5 mM Probenecid (pH 7.4) to remove the excess Fluo-4 AM. Working buffer was added and plates were incubated 10–15 min at room temperature. The assay plate was then transferred to the Molecular Devices-FLIPR384. The baseline calcium signal was recorded for 10 s, then the antagonist of interest was injected (10 μl at 3 times the final concentration) and the calcium signal recorded every second for 1 min, then every 2 s 40 times. Plates were then incubated at room temperature for 30 min, 1, 2, or 4 h.

OX2R = test: FLIPR calcium assay, OX2R, species not given; assay type: cell-based; conditions: species not stated
Protocol: as §1

| Compound | effect on sleep (sleep wake cycle; OX1R KO mice) | effect on the sleep wake cycle (sleep wake cycle; OX2R KO mice) | effect on the sleep wake cycle (sleep wake cycle; double receptor KO mice) | effect of incubation time on potency in calcium assay (OX1R) | effect of incubation time on potency in calcium assay (OX2R) |
| --- | --- | --- | --- | --- | --- |
| CNC(=O)[C@@H](c1ccccc1)N1CCc2cc(OC)c(OC)cc2[C@@H]1CCc1ccc(C(F)(F)F)cc1 [Almorexant] | effective | no effect on the sleep wake cycle | no effect on the sleep wake cycle |  |  |
| COc1ccnc(N2CCC3(CCCN(Cc4c[nH]c5ccccc45)C3=O)CC2)n1 [IPSU, 2-((1H-Indol-3-yl)methyl)-9-(4-methoxypyrimidin-2-yl)-2,9-diazaspiro[5.5]undecan-1-one] |  |  |  | constant potency values irrespective of the incubation time | constant potency values irrespective of the incubation time |
